Results as given in PMC10878344 (Journal of Enzyme Inhibition and Medicinal Chemistry, 2024).
Entries after “also recorded” stand apart in the source; their conditions may differ.

Columns and labels:
[1] = biological target: T1, eqBuChE (Equus caballus, UniProt P81908); assay: eqBuChE inhibition, modified Ellman's method; assay type: biochemical, equine
[2] = biological target: eeAChE (Electrophorus electricus, UniProt O42275); assay: eeAChE inhibition, modified Ellman's method; assay type: biochemical, electric eel
Chain of eeAChE (O42275 24-633): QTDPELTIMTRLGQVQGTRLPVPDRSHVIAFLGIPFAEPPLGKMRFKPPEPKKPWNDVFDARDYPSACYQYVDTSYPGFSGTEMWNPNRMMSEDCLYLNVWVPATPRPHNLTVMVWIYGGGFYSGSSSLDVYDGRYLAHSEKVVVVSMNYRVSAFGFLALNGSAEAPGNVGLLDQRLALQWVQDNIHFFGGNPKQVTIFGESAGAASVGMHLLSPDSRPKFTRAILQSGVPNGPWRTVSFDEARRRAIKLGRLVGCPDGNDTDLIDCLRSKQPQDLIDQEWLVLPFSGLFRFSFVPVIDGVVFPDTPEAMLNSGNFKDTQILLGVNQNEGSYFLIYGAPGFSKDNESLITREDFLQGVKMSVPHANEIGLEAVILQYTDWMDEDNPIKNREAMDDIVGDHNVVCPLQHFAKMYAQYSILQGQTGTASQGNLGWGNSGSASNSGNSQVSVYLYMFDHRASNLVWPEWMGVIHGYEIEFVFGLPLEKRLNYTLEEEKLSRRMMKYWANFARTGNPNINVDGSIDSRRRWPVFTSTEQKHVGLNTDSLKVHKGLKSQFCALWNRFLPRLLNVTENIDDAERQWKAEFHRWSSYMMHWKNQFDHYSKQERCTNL

[3] = biological target: huBuChE (Homo sapiens, UniProt P06276); assay: huBuChE inhibition, modified Ellman's method; assay type: biochemical
Chain of huBuChE (P06276 29-602): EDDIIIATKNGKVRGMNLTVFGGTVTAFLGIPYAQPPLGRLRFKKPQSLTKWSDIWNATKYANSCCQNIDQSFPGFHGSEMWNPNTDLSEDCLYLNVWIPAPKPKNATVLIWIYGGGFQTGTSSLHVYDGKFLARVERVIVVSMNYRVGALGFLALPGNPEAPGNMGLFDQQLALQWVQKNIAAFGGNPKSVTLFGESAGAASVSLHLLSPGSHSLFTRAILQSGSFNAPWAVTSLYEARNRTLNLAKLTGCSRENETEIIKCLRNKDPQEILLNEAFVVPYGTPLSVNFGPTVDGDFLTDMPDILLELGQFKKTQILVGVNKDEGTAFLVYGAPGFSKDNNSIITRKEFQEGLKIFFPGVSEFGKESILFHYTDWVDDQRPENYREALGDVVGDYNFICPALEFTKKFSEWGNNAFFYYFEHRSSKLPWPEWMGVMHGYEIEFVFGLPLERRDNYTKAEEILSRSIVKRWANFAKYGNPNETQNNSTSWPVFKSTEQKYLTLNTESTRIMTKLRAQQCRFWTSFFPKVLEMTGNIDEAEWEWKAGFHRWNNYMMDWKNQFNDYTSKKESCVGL

[4] = test system: LPS-induced NO production of mouse microglia cells (BV-2); assay: LPS-induced NO production in BV-2 microglia; assay type: cell-based; conditions: for NO production: 10 μM compound, LPS-induced BV-2 cells; for inhibition at 10 µM: Mus musculus, BV-2, read-out: NO inhibition
[5] = test system: ICR mice; assay: Acute toxicity test; conditions: ICR mice
[6] = Acute toxicity test; conditions: both, ICR, mouse, in vivo, po, 1000 mg/kg
[7] = PAMPA-BBB in vitro blood-brain barrier permeation assay; conditions: for Papp at 10 h, 25 μg/mL: pH 7.4; for CNS (±): PAMPA-BBB classification from Pe
[8] = biological target: T1, eqBuChE; assay: Kinetics of BuChE inhibition; assay type: biochemical, equine
[9] = test system: scopolamine-induced cognitive impairment mouse model; assay: Morris water maze test in scopolamine-induced cognitive impairment mouse model; assay type: in vivo, C57BL/6J mice; conditions: scopolamine 5 mg/kg i.p.; for escape latency to the platform: fifth day of training trials; for number of crossing the platform: last day without platform
[10] = PAMPA-BBB reported values; ref [35],[36]; cited from earlier work
[11] = test system: BV-2 cells; assay: BV-2 cell viability; conditions: 10 μM, MTT, 24 h

T1 sequence (P81908 whole entry): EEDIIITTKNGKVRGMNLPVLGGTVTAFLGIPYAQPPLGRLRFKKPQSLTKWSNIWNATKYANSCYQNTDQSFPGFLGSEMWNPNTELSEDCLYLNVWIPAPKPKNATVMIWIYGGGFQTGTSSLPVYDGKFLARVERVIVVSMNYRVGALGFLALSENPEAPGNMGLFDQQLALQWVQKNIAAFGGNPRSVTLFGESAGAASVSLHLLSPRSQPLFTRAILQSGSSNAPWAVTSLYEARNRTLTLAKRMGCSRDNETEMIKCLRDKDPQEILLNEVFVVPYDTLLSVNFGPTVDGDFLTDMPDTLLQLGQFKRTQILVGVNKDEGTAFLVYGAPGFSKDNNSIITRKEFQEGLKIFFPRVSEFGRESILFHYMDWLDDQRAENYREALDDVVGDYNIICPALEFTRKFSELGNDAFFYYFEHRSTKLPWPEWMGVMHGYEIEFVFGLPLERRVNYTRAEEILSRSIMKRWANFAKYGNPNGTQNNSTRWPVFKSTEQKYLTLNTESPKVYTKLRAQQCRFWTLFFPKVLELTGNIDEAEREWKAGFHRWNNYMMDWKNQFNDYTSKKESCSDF

Row | Compound | IC50 [1] [nM] | IC50 [2] [nM] | IC50 [3] [nM] | NO production [4] [%] | further results
1 | Cc1cc(=O)c(OCc2ccccc2)c(/C=C/c2cccc(OC(=O)N(C)C)c2)o1 [Compound 7a, (E)-3–(2-(3-(benzyloxy)-6-methyl-4-oxo-4H-pyran-2-yl)vinyl)phenyl dimethylcarbamate] | 24.6 ± 6.66 | > 20000 | 99.4 ± 20.6 | 90.31 | 
2 | CCN(C)C(=O)Oc1cccc(/C=C/c2oc(C)cc(=O)c2OCc2ccccc2)c1 [Compound 7b, (E)-3–(2-(3-(benzyloxy)-6-methyl-4-oxo-4H-pyran-2-yl)vinyl)phenyl ethyl(methyl)carbamate] | 157 ± 13.3 | > 20000 | 631 ± 155 |  | 
3 | CCN(CC)C(=O)Oc1cccc(/C=C/c2oc(C)cc(=O)c2OCc2ccccc2)c1 [Compound 7c, (E)-3–(2-(3-(benzyloxy)-6-methyl-4-oxo-4H-pyran-2-yl)vinyl)phenyl diethylcarbamate] | 652 ± 44.5 | > 20000 | > 10000 |  | 
4 | Cc1cc(=O)c(OCc2ccccc2)c(/C=C/c2cccc(OC(=O)N(C(C)C)C(C)C)c2)o1 [Compound 7d, (E)-3–(2-(3-(benzyloxy)-6-methyl-4-oxo-4H-pyran-2-yl)vinyl)phenyl diisopropylcarbamate] | 8530 ± 314 | > 20000 | > 10000 | 80.01 | 
5 | Cc1cc(=O)c(OCc2ccccc2)c(/C=C/c2cccc(OC(=O)N(c3ccccc3)c3ccccc3)c2)o1 [Compound 7e, (E)-3–(2-(3-(benzyloxy)-6-methyl-4-oxo-4H-pyran-2-yl)vinyl)phenyl diphenylcarbamate] | > 10000 | > 20000 | > 10000 | 106.16 | 
6 | Cc1cc(=O)c(OCc2ccccc2)c(/C=C/c2cccc(OC(=O)N3CCCC3)c2)o1 [Compound 7f, (E)-3–(2-(3-(benzyloxy)-6-methyl-4-oxo-4H-pyran-2-yl)vinyl)phenyl pyrrolidine-1-carboxylate] | 31.4 ± 5.97 | > 20000 | 156 ± 36 |  | 
7 | Cc1cc(=O)c(OCc2ccccc2)c(/C=C/c2cccc(OC(=O)N3CCCCC3)c2)o1 [Compound 7g, (E)-3–(2-(3-(benzyloxy)-6-methyl-4-oxo-4H-pyran-2-yl)vinyl)phenyl piperidine-1-carboxylate] | 15.3 ± 0.75 | > 20000 | 38.7 ± 2.08 | 90.09 | 
8 | Cc1cc(=O)c(OCc2ccccc2)c(/C=C/c2cccc(OC(=O)N3CCOCC3)c2)o1 [Compound 7h, (E)-3–(2-(3-(benzyloxy)-6-methyl-4-oxo-4H-pyran-2-yl)vinyl)phenyl morpholine-4-carboxylate] | 72.6 ± 9.39 | > 20000 | > 10000 |  | 
9 | Cc1cc(=O)c(OCc2ccccc2)c(/C=C/c2cccc(OC(=O)N3CCC(Cc4ccccc4)CC3)c2)o1 [Compound 7i, (E)-3–(2-(3-(benzyloxy)-6-methyl-4-oxo-4H-pyran-2-yl)vinyl)phenyl 4-benzylpiperidine-1-carboxylate] | 75.2 ± 11.9 | > 20000 | 374 ± 6.45 |  | 
10 | Cc1cc(=O)c(OCc2ccccc2)c(/C=C/c2cccc(OC(=O)N3CCN(Cc4ccccc4)CC3)c2)o1 [Compound 7j, (E)-3–(2-(3-(benzyloxy)-6-methyl-4-oxo-4H-pyran-2-yl)vinyl)phenyl 4-benzylpiperazine-1-carboxylate] | 31.8 ± 6.92 | > 20000 | 733 ± 59.8 |  | 
11 | Cc1cc(=O)c(OCc2ccccc2)c(/C=C/c2cccc(OCC(=O)N3CCCCC3)c2)o1 [Compound 7k, (E)-3-(benzyloxy)-6-methyl-2–(3–(2-oxo-2-(piperidin-1-yl)ethoxy)styryl)-4H-pyran-4-one] | 1430 ± 131 | > 20000 | 486 ± 46.2 | 64.59 | inhibition at 10 µM [4]: 35.4%
12 | O=C(Oc1cccc(/C=C/c2occc(=O)c2OCc2ccccc2)c1)N1CCCCC1 [Compound 7l, (E)-3–(2-(3-(benzyloxy)-4-oxo-4H-pyran-2-yl)vinyl)phenyl piperidine-1-carboxylate] | 8.1 ± 2.75 | > 20000 | 6.93 ± 1.57 |  | 
13 | O=C(Oc1cccc(/C=C/c2oc(CO)cc(=O)c2OCc2ccccc2)c1)N1CCCCC1 [Compound 7m, (E)-3–(2-(3-(benzyloxy)-6-(hydroxymethyl)-4-oxo-4H-pyran-2-yl)vinyl)phenyl piperidine-1-carboxylate] | 5.22 ± 1.72 | > 20000 | 16.5 ± 5.44 | 76.97 | 
14 | Cc1cc(=O)c(OCc2ccc3ccccc3c2)c(/C=C/c2cccc(OC(=O)N3CCCCC3)c2)o1 [Compound 7n, (E)-3–(2-(6-methyl-3-(naphthalen-2-ylmethoxy)-4-oxo-4H-pyran-2-yl)vinyl)phenyl piperidine-1-carboxylate] | 18.9 ± 5.98 | > 20000 | 39.4 ± 4.2 |  | 
15 | Cc1cc(=O)c(OCc2ccc(-c3ccccc3)cc2)c(/C=C/c2cccc(OC(=O)N3CCCCC3)c2)o1 [Compound 7o, (E)-3–(2-(3-([1,1′-biphenyl]-4-ylmethoxy)-6-methyl-4-oxo-4H-pyran-2-yl)vinyl)phenyl piperidine-1-carboxylate] | 19.2 ± 1.91 | > 20000 | 37.9 ± 5.37 |  | 
16 | COc1c(/C=C/c2cccc(OC(=O)N3CCCCC3)c2)oc(C)cc1=O [Compound 7p, (E)-3-(2-(3-methoxy-6-methyl-4-oxo-4H-pyran-2-yl)vinyl)phenyl piperidine-1-carboxylate] | 4.68 ± 1.39 | > 20000 | 9.12 ± 0.57 | 71.18 | fold increase in inhibiting eqBuChE ([1]; relative to compound 7g): 3 fold; abnormal behaviours or deaths after administration ([5]; 1000 mg/kg intragastric single dose, 14 d): no abnormal behaviours or deaths; pathological changes in heart, liver, spleen and brain (HE staining) ([5]; 1000 mg/kg, after 14 d, compared with control group): did not observe obvious pathological changes; LD50 at 14 d [6]: > 1000 mg/kg; fold increase in inhibiting huBuChE ([3]; relative to compound 7g): 4 fold; inhibition at 10 µM [4]: 28.8%; BBB permeability in the PAMPA-BBB assay (in words) ([7]; PAMPA): high BBB permeability; Papp at 10 h, 25 μg/mL ([7]; PAMPA): 5.7 ± 0.43 ×10⁻⁶ cm/s; CNS (±) [7]: CNS + (CNS +: (high BBB permeability), Pe (×10^−6 cm/s) > 3.95); Ki [8]: 3.15 nM; Kib (inhibition constant for the enzyme-substrate complex) ([8]; Cornish-Bowden plot): 3.84 nM; type of BuChE inhibition ([8]; Dixon and Cornish-Bowden plots): mix-type; also recorded: mixed-type inhibition; escape latency to the platform ([9]; 1 mg/kg oral once daily): 30.24 s; number of crossing the platform ([9]; 1 mg/kg oral once daily): 3.3 times; escape latency to the platform ([9]; 5 mg/kg oral once daily): 29.12 s; number of crossing the platform ([9]; 5 mg/kg oral once daily): 3.5 times
17 | Cc1cc(=O)c(OCc2ccccc2)c(-c2ccc3ccc(OC(=O)N4CCCCC4)cc3c2)o1 [Compound 7q, 7–(3-(Benzyloxy)-6-methyl-4-oxo-4H-pyran-2-yl)naphthalen-2-yl piperidine-1-carboxylate] | 41.7 ± 11.3 | > 20000 | 230 ± 29.9 |  | 
18 | Cc1cc(=O)c(OCc2ccccc2)c(-c2ccc(-c3cccc(OC(=O)N4CCCCC4)c3)cc2)o1 [Compound 7r, 4′-(3-(Benzyloxy)-6-methyl-4-oxo-4H-pyran-2-yl)-[1,1′-biphenyl]-3-yl piperidine-1-carboxylate] | 94.3 ± 20.9 | > 20000 | 651 ± 157 |  | 
19 | Cc1cc(=O)c(OCc2ccccc2)c(CCc2cccc(OC(=O)N3CCCCC3)c2)o1 [Compound 7s, 3–(2-(3-(Benzyloxy)-6-methyl-4-oxo-4H-pyran-2-yl)ethyl)phenyl piperidine-1-carboxylate] | 12.3 ± 3.12 | > 20000 | 11 ± 1.7 | 77.77 | 
20 | CCn1cc(C(=O)O)c(=O)c2cc(F)c(N3CCNCC3)cc21 [Norfloxacin] |  |  |  |  | Papp at 10 h, 25 μg/mL ([7]; PAMPA): 0.18 ± 0.03 ×10⁻⁶ cm/s; CNS (±) [7]: CNS - (CNS -: (low BBB permeability), Pe (×10^−6 cm/s) < 2.03); Pe(ref.) [10]: 1e-07 cm/s
21 | CN1C(C(=O)Nc2ccccn2)=C(O)c2ccccc2S1(=O)=O [Piroxicam] |  |  |  |  | Papp at 10 h, 25 μg/mL ([7]; PAMPA): 2.16 ± 0.04 ×10⁻⁶ cm/s; CNS (±) [7]: CNS +/-; Pe(ref.) [10]: 2.5e-06 cm/s
22 | CCN(C)C(=O)Oc1cccc([C@H](C)N(C)C)c1 [Rivastigmine, reference compound] |  |  |  |  | escape latency to the platform ([9]; 1 mg/kg oral once daily): 31.15 s; number of crossing the platform ([9]; 1 mg/kg oral once daily): 3.0 times
23 | CN1C(C(=O)Nc2ccccn2)=C(O)c2sccc2S1(=O)=O [Tenoxicam] |  |  |  |  | Papp at 10 h, 25 μg/mL ([7]; PAMPA): 0.35 ± 0.16 ×10⁻⁶ cm/s; CNS (±) [7]: CNS - (CNS -: (low BBB permeability), Pe (×10^−6 cm/s) < 2.03); Pe(ref.) [10]: 1e-07 cm/s
24 | Cn1c(=O)c2[nH]cnc2n(C)c1=O [Theophylline] |  |  |  |  | Pe(ref.) [10]: 0.12 ± 0.01 ×10^−6 cm/s
25 | C[C@]12CCC(=O)C=C1CC[C@@H]1[C@@H]2[C@@H](O)C[C@@]2(C)[C@H]1CC[C@]2(O)C(=O)CO [hydrocortisone, Hydrocortisone, reference compound] |  |  |  | 70.25 | cell viability compared to the control group [11]: no significant differences
